This note sets out measurements from patent US20120220535A1, “CYCLIC-GLUR6 ANALOGS, METHODS OF TREATMENT AND USE” (priority 2009, published 2012).

Entries after “also recorded” stand apart in the source; their conditions may differ.

For data set [1], the system named is acute slices of rat retinal and brain tissue. As to the kind of experiment: Multi-electrode array electrophysiological screen for neuroprotection against kainate- or NMDA-induced death. Type of data set: cell-based. The note with it: 30 uM; pretreatment, or cotreatment with an NMDA receptor agonist; slices perfused about 30 min with NMDA or kainate agonists. An excerpt:
One aspect of the present invention usefully employs electrophysiological screening of Structure 1. Particular attention is drawn to an electrophysiological assay that rapidly screens for compounds which are inhibitors that target neuron-specific PDZ domains. Recordings of cellular activity were made from acute slices of rat retinal and brain tissue to examine the effects of Structure 1 on synaptic Kainate/AMPA, NMDARs and to test for protection against excitotoxic insults. Kainate/AMPA and NMDAR components were distinguished pharmacologically. Noted are the selective AMPA-antagonist NBQX and the competitive NMDA-antagonist CPP. A multi-electrode array was used that enabled examination of activity from sixty neurons simultaneously. This array addressed whether a test compound provided neuroprotection against kainate or N-methyl-D-aspartic acid (NMDA)-induced death. Briefly, slices were perfused for prolonged periods (about 30 min) with NMDA or kainate agonists until activity in half of the neurons is lost and responses cannot be rescued by washing out the NMDA or kainate (assumed to be resulting from neuronal death).

Another data set has as its system hippocampal neurons. Description: Excitotoxic insult in hippocampal neurons (loss of functional activity). The note with it: co-application with excitotoxic insult. It is filed as cell-based. An excerpt:
This loss was prevented by the co-application of the compound of Structure 1. Results were confirmatory of the retinal data and extends it into tissues that are more strongly associated with CNS disorders such as Stroke and neurodegenerative diseases. Noted is therapeutic treatment for autism disorders and cognitive decline symptomatology conditions.

Data set [2] in a line: Uptake in the retina after intravitreal injection of fluorescently tagged compound. It is filed as in vivo. An excerpt: Uptake in the retina was observed as follows. […] In numerous populations of retinal neurons located in both the ganglion cell (GCL) and inner nuclear layers.
A short description of data set [3]: Intrathecal injection in rats, distribution in spinal cord and brain. Type of data set: in vivo. Here is the method: Intrathecal injection of Structure 1 compound in rats was tested. Rats were prepped for intrathecal injection containing 16 nmol of Structure 1 compound at the level of CV2. 24 hrs following the injection the rats were perfused with 4% PFA and frozen cross-sections of the cord were mounted on glass slides and photographed.

The subject of the next data set is ischemic episode. As to the kind of experiment: Therapeutic protocol in stroke (Example 2). It is filed as in vivo, human. The note with it: 50 mg/Kg i.v. within 2 hours of onset; outcome within 48 hours; person. As to the method: A person presents with an ischemic episode resulting sudden numbness the face, and left arm, confusion, and trouble speaking. […] Doses of from about 1 to about 100 mg/Kg are noted.

The mark [4] stands for this setting: rats, 16 nmol intrathecal at CV2, 24 hrs after injection.

On to “CONH2-(Arg)7-Cys-Cys-Lys-Asn-Tyr-Lys-c[-Lys-Thr-Glu(βAla)Val [Structure 1]”, for which the “prevention of neuronal death / cell death” value in data set [1] was “provided efficacy and potency in preventing neuronal death; also recorded: prevented cell death”. The “permanent loss of functional activity after excitotoxic insult” value with hippocampal neurons was “prevented”. Further, the “uptake pattern in retina” value in data set [2] (1.5-6 nmol, 6 hrs following intravitreal injection) is reported as about 50%. Also, the “accumulation within ganglion cell axons” value in data set [2] (intravitreal injection, labeling at the optic nerve head) is “selectively accumulated within ganglion cell axons”. In addition, the “crossing of vitreal/retina barrier” value in data set [2] (tagged with a fluorescent marker, administered intravitrealy) was “crossed the vitreal/retina barrier”. In data set [3] (setting [4]), the “accumulation in brain regions after cervical intrathecal injection” value is “accumulate in cells located in the cortex, hippocampus, brainstem and striatum”; the “crossing of pia mater/brain barrier and accumulation in spinal cord neurons” value was “crosses the pia mater/brain barrier and selectively accumulates in neurons located within the gray matter of the cord”. Further, the “crossing of pia mater/brain barrier” value in data set [3] (tagged with a fluorescent marker, localizes in neurons within retina, spinal cord and brain) is given as “readily cross the pia mater/brain barrier”. In the data set with ischemic episode, the “patient outcome after ischemic episode” value is “recovers without significant brain damage”.
